Experiments:
[1] = system: HUP-T3 pancreatic cancer cells; assay: Cellular proliferation of HUP-T3 pancreatic cancer cells in vitro; type: cell-based; conditions: treatment on day 1 for 5 h, measured after 7 days
Protocol: (§1) The aim of the study was to determine the effect of AP12009 (trabedersen) treatment in combination with 5-Fluorouracil (5-FU) on TGFβ2 secretion and on cellular proliferation of HUP-T3 pancreatic cancer cells and WiDr colon cancer cells in vitro.
(§2) 10 μM of AP12009 as monotherapy decreased cell proliferation (53% proliferation of untreated control) and TGFβ2 expression (42% of untreated control) in HUP-T3 cells.

TGFβ2 [2] = assay: TGFβ2 secretion/expression in WiDr colon cancer cells; type: cell-based; conditions: ca.
From the text: as §1

WiDr colon cancer cells = assay: Cellular proliferation of WiDr colon cancer cells in vitro; type: cell-based; conditions: treatment on day 1 for 5 h only, ca.
From the text: as §1

TGFβ2 [3] = assay: TGFβ2 secretion/expression in HUP-T3 pancreatic cancer cells; type: cell-based; conditions: ca.
Protocol: as §1, §2

[4] = system: C8161 human melanoma cells; assay: C8161 melanoma xenograft model: tumor growth and survival; conditions: for Tumor growth suppressed relative to control group 1: day 42
Protocol: Sixty female athymic nude mice were intradermally inoculated with C8161 human melanoma cells and randomized into six groups of 10 mice. Three groups received monotherapy treatment with either OT-101 (trabedersen) (16 mg/kg) (Group 2) or Dacarbazine (DTIC; 1 or 10 mg/kg; Groups 3, 4). Two groups received combination therapy with OT-101/DTIC at 16/1 mg/kg or 16/10 mg/kg (Groups 5 and 6). Vehicle (0.9% saline, Groups 1, 3, and 4) and OT-101 were administered 3 times/week via subcutaneous injection. Vehicle (0.9% saline, Groups 1 and 2) and DTIC (1 or 10 mg/kg) were administered via intraperitoneal injection four times/week. All OT-101/Trabedersen treatments commenced at day 0 of the study and all DTIC treatments commenced on day 14. Mice were monitored for adverse effects, body weight and tumor size three times weekly. The tumor, lungs, liver and kidneys were excised from all mice at termination and weighed.

Compound	5-FU concentrations that dose-dependently reduced cell proliferation [1] [µM]	5-FU concentrations at which TGFβ2 was suppressed (TGFβ2 [2]) [µM]	5-FU concentrations that concentration-dependently reduced cell proliferation (WiDr colon cancer cells) [µM]	5-FU concentrations at which TGFβ2 was suppressed (TGFβ2 [3]) [µM]	Tumor growth suppressed relative to control group 1 ([4]; group 3: DTIC 1 mg/kg i.p. four times/week from day 14) [%]	Tumor growth suppressed relative to control group 1 ([4]; group 4: DTIC 10 mg/kg i.p. four times/week from day 14) [%]	median survival ([4]; group 3: DTIC 1 mg/kg) [days]	median survival ([4]; group 4: DTIC 10 mg/kg) [days]
O=c1[nH]cc(F)c(=O)[nH]1 [5-FU, 5-Fluorouracil, reference compound]	> 10	> 75	> 38	> 75	–	–	–	–
CN(C)/N=N/c1[nH]cnc1C(N)=O [DTIC, Dacarbazine]	–	–	–	–	−2	78	47	60

Source: US20170226518A1, “COMPOSITIONS AND METHODS FOR TREATING CANCER” (Autotelic LLC, priority 2016, published 2017)
